Source: PubChem BioAssay AID2060486 (Molecular Pharmacology Branch, DTP, NCI, 2025)
pIC50: −log10 of the molar value.

Tested on: IGROV1 complex spheroids (HUVEC, MSC), viability % test/control
Assay: Anticancer human tumor IGROV1 cell line growth inhibition [GQUAD];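 note: spheroids exposed to compounds for 7 days before readout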;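 for viability, T/C: 100% = DMSO vehicle control viability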
Settings: for pIC50: curve of first compound; for viability, T/C: stronger effect = lower value
Summary of the method: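 Multi-cell-type spheroids of tumor cells with HUVEC and mesenchymal stem cells, treated with drug combinations. Concentrations descend in half-log steps from near clinical Cmax, or from 10 microM where Cmax is unknown; viability read-out.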

[1] = second compound 0.0316 µM, first compound 0.0316 µM
[2] = second compound 0.0316 µM, first compound 0.1 µM
[3] = second compound 0.0316 µM, first compound 0.316 µM
[4] = second compound 0.0316 µM, first compound 1 µM
[5] = second compound 0.0316 µM, first compound 3.16 µM
[6] = second compound 0.0316 µM, first compound 10 µM
[7] = second compound 0.1 µM, first compound 0.0316 µM
[8] = second compound 0.1 µM, first compound 0.1 µM
[9] = second compound 0.1 µM, first compound 0.316 µM
[10] = second compound 0.1 µM, first compound 1 µM
[11] = second compound 0.1 µM, first compound 3.16 µM
[12] = second compound 0.1 µM, first compound 10 µM
[13] = second compound 0.316 µM, first compound 0.0316 µM
[14] = second compound 0.316 µM, first compound 0.1 µM
[15] = second compound 0.316 µM, first compound 0.316 µM
[16] = second compound 0.316 µM, first compound 1 µM
[17] = second compound 0.316 µM, first compound 3.16 µM
[18] = second compound 0.316 µM, first compound 10 µM
[19] = second compound 1 µM, first compound 0.0316 µM
[20] = second compound 1 µM, first compound 0.1 µM
[21] = second compound 1 µM, first compound 0.316 µM
[22] = second compound 1 µM, first compound 1 µM
[23] = second compound 1 µM, first compound 3.16 µM
[24] = second compound 1 µM, first compound 10 µM
[25] = second compound 3.16 µM, first compound 0.0316 µM
[26] = second compound 3.16 µM, first compound 0.1 µM
[27] = second compound 3.16 µM, first compound 0.316 µM
[28] = second compound 3.16 µM, first compound 1 µM
[29] = second compound 3.16 µM, first compound 3.16 µM
[30] = second compound 3.16 µM, first compound 10 µM
[31] = second compound 10 µM, first compound 0.0316 µM
[32] = second compound 10 µM, first compound 0.1 µM
[33] = second compound 10 µM, first compound 0.316 µM
[34] = second compound 10 µM, first compound 1 µM
[35] = second compound 10 µM, first compound 3.16 µM
[36] = second compound 10 µM, first compound 10 µM

CC(C)n1c(=O)n(C)c2cnc3cc(F)c(-c4ccc(OCCCN5CCCCC5)nc4)cc3c21 + CN(C)c1ccc(Nc2c3ccc(NC(=O)CCN4CCCC4)cc3nc3cc(NC(=O)CCN4CCCC4)ccc23)cc1
pIC50 (second compound 0.0316 µM): 5.40
pIC50 (second compound 0.1 µM): 5.42
pIC50 (second compound 0.316 µM): 5.39
pIC50 (second compound 1 µM): 5.82
pIC50 (second compound 3.16 µM): > 7.50
pIC50 (second compound 10 µM): > 7.50
viability, T/C [1]: 91.8%
viability, T/C [2]: 70.1%
viability, T/C [3]: 90.8%
viability, T/C [4]: 72.2%
viability, T/C [5]: 59.2%
viability, T/C [6]: 15.5%
viability, T/C [7]: 93.3%
viability, T/C [8]: 59.2%
viability, T/C [9]: 87.3%
viability, T/C [10]: 72%
viability, T/C [11]: 55.2%
viability, T/C [12]: 18%
viability, T/C [13]: 86.1%
viability, T/C [14]: 69.6%
viability, T/C [15]: 83.4%
viability, T/C [16]: 74.8%
viability, T/C [17]: 58.9%
viability, T/C [18]: 16.7%
viability, T/C [19]: 54.6%
viability, T/C [20]: 53.1%
viability, T/C [21]: 58.9%
viability, T/C [22]: 55.6%
viability, T/C [23]: 40%
viability, T/C [24]: 13%
viability, T/C [25]: 49.7%
viability, T/C [26]: 39.4%
viability, T/C [27]: 27%
viability, T/C [28]: 21.9%
viability, T/C [29]: 19.8%
viability, T/C [30]: 10.7%
viability, T/C [31]: 18.3%
viability, T/C [32]: 18.8%
viability, T/C [33]: 11.4%
viability, T/C [34]: 10.5%
viability, T/C [35]: 7.56%
viability, T/C [36]: 3.54%

CC1COCCN1c1cc(C2(O)CC3CCC(C2)O3)c2cnn(-c3ccn[nH]3)c2n1 (stereo not drawn) + CN(C)c1ccc(Nc2c3ccc(NC(=O)CCN4CCCC4)cc3nc3cc(NC(=O)CCN4CCCC4)ccc23)cc1
pIC50 (second compound 0.0316 µM): 7.43
pIC50 (second compound 0.1 µM): > 7.50
pIC50 (second compound 0.316 µM): > 7.50
pIC50 (second compound 1 µM): > 7.50
pIC50 (second compound 3.16 µM): > 7.50
pIC50 (second compound 10 µM): > 7.50
viability, T/C [1]: 54.8%
viability, T/C [2]: 20%
viability, T/C [3]: 7.64%
viability, T/C [4]: 5.68%
viability, T/C [5]: 2.88%
viability, T/C [6]: 1.63%
viability, T/C [7]: 45%
viability, T/C [8]: 22.7%
viability, T/C [9]: 9.08%
viability, T/C [10]: 5.11%
viability, T/C [11]: 3.48%
viability, T/C [12]: 1.19%
viability, T/C [13]: 45.8%
viability, T/C [14]: 19%
viability, T/C [15]: 9.25%
viability, T/C [16]: 4.51%
viability, T/C [17]: 4.65%
viability, T/C [18]: 1.93%
viability, T/C [19]: 42.6%
viability, T/C [20]: 17.5%
viability, T/C [21]: 8.86%
viability, T/C [22]: 5.16%
viability, T/C [23]: 4.18%
viability, T/C [24]: 1.58%
viability, T/C [25]: 38.7%
viability, T/C [26]: 13.4%
viability, T/C [27]: 8.17%
viability, T/C [28]: 4.73%
viability, T/C [29]: 4%
viability, T/C [30]: 1.78%
viability, T/C [31]: 17%
viability, T/C [32]: 10.2%
viability, T/C [33]: 5.93%
viability, T/C [34]: 4.42%
viability, T/C [35]: 3.55%
viability, T/C [36]: 1.05%

CC1COCCN1c1cc(C2(S(C)(=N)=O)CC2)nc(-c2ccnc3[nH]ccc23)n1 (stereo not drawn) + CN(C)c1ccc(Nc2c3ccc(NC(=O)CCN4CCCC4)cc3nc3cc(NC(=O)CCN4CCCC4)ccc23)cc1
pIC50 (second compound 0.0316 µM): 5.99
pIC50 (second compound 0.1 µM): 6.02
pIC50 (second compound 0.316 µM): 6.01
pIC50 (second compound 1 µM): 5.99
pIC50 (second compound 3.16 µM): 5.99
pIC50 (second compound 10 µM): 6.85
viability, T/C [1]: 83.5%
viability, T/C [2]: 76.6%
viability, T/C [3]: 86.7%
viability, T/C [4]: 49.9%
viability, T/C [5]: 16.1%
viability, T/C [6]: 7.65%
viability, T/C [7]: 99.2%
viability, T/C [8]: 89.5%
viability, T/C [9]: 76.3%
viability, T/C [10]: 52.7%
viability, T/C [11]: 14%
viability, T/C [12]: 5.88%
viability, T/C [13]: 83.7%
viability, T/C [14]: 103%
viability, T/C [15]: 76.8%
viability, T/C [16]: 51.4%
viability, T/C [17]: 13.7%
viability, T/C [18]: 6.28%
viability, T/C [19]: 72.4%
viability, T/C [20]: 93%
viability, T/C [21]: 69.8%
viability, T/C [22]: 52.5%
viability, T/C [23]: 12.1%
viability, T/C [24]: 6.36%
viability, T/C [25]: 65.5%
viability, T/C [26]: 84%
viability, T/C [27]: 79.7%
viability, T/C [28]: 49.4%
viability, T/C [29]: 16.5%
viability, T/C [30]: 6.55%
viability, T/C [31]: 60.6%
viability, T/C [32]: 54.4%
viability, T/C [33]: 40.4%
viability, T/C [34]: 30.5%
viability, T/C [35]: 15.2%
viability, T/C [36]: 7.14%

O=C(c1cc(Cc2n[nH]c(=O)c3ccccc23)ccc1F)N1CCN(C(=O)C2CC2)CC1 + CN(C)c1ccc(Nc2c3ccc(NC(=O)CCN4CCCC4)cc3nc3cc(NC(=O)CCN4CCCC4)ccc23)cc1
pIC50 (second compound 0.0316 µM): 5.41
pIC50 (second compound 0.1 µM): 5.34
pIC50 (second compound 0.316 µM): 5.43
pIC50 (second compound 1 µM): 5.31
pIC50 (second compound 3.16 µM): 5.63
pIC50 (second compound 10 µM): > 7.50
viability, T/C [1]: 87.2%
viability, T/C [2]: 81.6%
viability, T/C [3]: 67.3%
viability, T/C [4]: 67.9%
viability, T/C [5]: 61.6%
viability, T/C [6]: 22.1%
viability, T/C [7]: 92.9%
viability, T/C [8]: 87.2%
viability, T/C [9]: 83.9%
viability, T/C [10]: 74.8%
viability, T/C [11]: 67.6%
viability, T/C [12]: 20.3%
viability, T/C [13]: 66.1%
viability, T/C [14]: 87.3%
viability, T/C [15]: 78.4%
viability, T/C [16]: 73.3%
viability, T/C [17]: 54.3%
viability, T/C [18]: 24.4%
viability, T/C [19]: 62.2%
viability, T/C [20]: 90.4%
viability, T/C [21]: 86.9%
viability, T/C [22]: 71.7%
viability, T/C [23]: 66.1%
viability, T/C [24]: 24.6%
viability, T/C [25]: 58.3%
viability, T/C [26]: 87.8%
viability, T/C [27]: 78.6%
viability, T/C [28]: 51.9%
viability, T/C [29]: 49.9%
viability, T/C [30]: 20.7%
viability, T/C [31]: 50.9%
viability, T/C [32]: 44.6%
viability, T/C [33]: 38.4%
viability, T/C [34]: 37.6%
viability, T/C [35]: 30.1%
viability, T/C [36]: 11.8%
